Reference: paper PMC10041525, “New Dual Inhibitors of Bacterial Topoisomerases with Broad-Spectrum Antibacterial Activity and In Vivo Efficacy against Vancomycin-Intermediate Staphylococcus aureus” (Journal of Medicinal Chemistry, 2023)

System: 100 A. baumannii strains (50 MDR, 50 non-MDR)
Assay: MIC broth microdilution at IHMA Europe, panel of 100 strains
Format: cell-based

Substance: piperacillin/tazobactam [Piperacillin Tazobactam]
- MIC (A. baumannii IHMA 1769393, Lithuania 2018, Non-MDR): ≤0.25 µg/mL
- MIC (A. baumannii IHMA 1769782, Israel 2018, MDR): >128 µg/mL
- MIC (A. baumannii IHMA 1769910, Israel 2018, Non-MDR): ≤0.25 µg/mL
- MIC (A. baumannii IHMA 1790317, Czech Republic 2018, Non-MDR): ≤0.25 µg/mL
- MIC (A. baumannii IHMA 1790916, Romania 2018, Non-MDR): ≤0.25 µg/mL
- MIC (A. baumannii IHMA 1791877, Israel 2018, MDR): >128 µg/mL
- MIC (A. baumannii IHMA 1792961, Jordan 2018, MDR): >128 µg/mL
- MIC (A. baumannii IHMA 1795669, Tunisia 2018, Non-MDR): ≤0.25 µg/mL
- MIC (A. baumannii IHMA 1814276, Lebanon 2018, MDR): >128 µg/mL
- MIC (A. baumannii IHMA 1815198, Kuwait 2018, MDR): >128 µg/mL
- MIC (A. baumannii IHMA 1815856, Israel 2018, MDR): >128 µg/mL
- MIC (A. baumannii IHMA 1821468, South Africa 2018, Non-MDR): ≤0.25 µg/mL
- MIC (A. baumannii IHMA 1829500, Georgia 2018, Non-MDR): ≤0.25 µg/mL
- MIC (A. baumannii IHMA 1830924, United Kingdom 2018, Non-MDR): 16 µg/mL
- MIC (A. baumannii IHMA 1849819, Kuwait 2018, MDR): >128 µg/mL
- MIC (A. baumannii IHMA 1849829, Kuwait 2018, Non-MDR): ≤0.25 µg/mL
- MIC (A. baumannii IHMA 1857118, Slovenia 2018, Non-MDR): ≤0.25 µg/mL
- MIC (A. baumannii IHMA 1863631, France 2018, Non-MDR): ≤0.25 µg/mL
- MIC (A. baumannii IHMA 1870054, United States 2018, Non-MDR): ≤0.25 µg/mL
- MIC (A. baumannii IHMA 1884428, Italy 2018, Non-MDR): ≤0.25 µg/mL
- MIC (A. baumannii IHMA 1884990, Germany 2018, Non-MDR): ≤0.25 µg/mL
- MIC (A. baumannii IHMA 1900538, Turkey 2018, Non-MDR): ≤0.25 µg/mL
- MIC (A. baumannii IHMA 1913773, Kenya 2018, Non-MDR): ≤0.25 µg/mL
- MIC (A. baumannii IHMA 1926285, Qatar 2018, Non-MDR): ≤0.25 µg/mL
- MIC (A. baumannii IHMA 1926288, Qatar 2018, MDR): >128 µg/mL
- MIC (A. baumannii IHMA 1957343, Portugal 2019, Non-MDR): 8 µg/mL
- MIC (A. baumannii IHMA 1963732, Turkey 2019, MDR): >128 µg/mL
- MIC (A. baumannii IHMA 1967860, Spain 2019, Non-MDR): ≤0.25 µg/mL
- MIC (A. baumannii IHMA 1971673, Latvia 2019, MDR): >128 µg/mL
- MIC (A. baumannii IHMA 1975075, Israel 2019, Non-MDR): 8 µg/mL
- MIC (A. baumannii IHMA 1977077, Kuwait 2019, Non-MDR): 16 µg/mL
- MIC (A. baumannii IHMA 1983151, Greece 2019, MDR): >128 µg/mL
- MIC (A. baumannii IHMA 1984665, Lithuania 2019, MDR): >128 µg/mL
- MIC (A. baumannii IHMA 1986678, Turkey 2019, Non-MDR): ≤0.25 µg/mL
- MIC (A. baumannii IHMA 1986738, Turkey 2019, MDR): >128 µg/mL
- MIC (A. baumannii IHMA 1987162, Croatia 2019, MDR): >128 µg/mL
- MIC (A. baumannii IHMA 1993615, Turkey 2019, MDR): >128 µg/mL
- MIC (A. baumannii IHMA 1994284, Italy 2019, MDR): >128 µg/mL
- MIC (A. baumannii IHMA 1995161, Czech Republic 2019, Non-MDR): ≤0.25 µg/mL
- MIC (A. baumannii IHMA 1997936, Morocco 2019, Non-MDR): 4 µg/mL
- MIC (A. baumannii IHMA 1999178, Belgium 2019, Non-MDR): 4 µg/mL
- MIC (A. baumannii IHMA 2003279, Turkey 2019, MDR): >128 µg/mL
- MIC (A. baumannii IHMA 2014367, Jordan 2019, Non-MDR): 4 µg/mL
- MIC (A. baumannii IHMA 2014931, South Africa 2019, Non-MDR): 0.5 µg/mL
- MIC (A. baumannii IHMA 2019315, Romania 2019, Non-MDR): ≤0.25 µg/mL
- MIC (A. baumannii IHMA 2020360, Croatia 2019, MDR): >128 µg/mL
- MIC (A. baumannii IHMA 2031511, Greece 2019, Non-MDR): ≤0.25 µg/mL
- MIC (A. baumannii IHMA 2031524, Greece 2019, MDR): >128 µg/mL
- MIC (A. baumannii IHMA 2034657, Tunisia 2019, Non-MDR): ≤0.25 µg/mL
- MIC (A. baumannii IHMA 2035089, Serbia 2019, MDR): >128 µg/mL
- MIC (A. baumannii IHMA 2035134, Serbia 2019, Non-MDR): 4 µg/mL
- MIC (A. baumannii IHMA 2038976, Hungary 2019, MDR): >128 µg/mL
- MIC (A. baumannii IHMA 2051503, Serbia 2019, MDR): >128 µg/mL
- MIC (A. baumannii IHMA 2058329, Slovenia 2019, Non-MDR): ≤0.25 µg/mL
- MIC (A. baumannii IHMA 2065587, France 2019, Non-MDR): ≤0.25 µg/mL
- MIC (A. baumannii IHMA 2099294, United Kingdom 2019, Non-MDR): 4 µg/mL
- MIC (A. baumannii IHMA 2129256, Qatar 2019, Non-MDR): ≤0.25 µg/mL
- MIC (A. baumannii IHMA 2154584, Israel 2020, MDR): >128 µg/mL
- MIC (A. baumannii IHMA 2155340, Kenya 2020, MDR): >128 µg/mL
- MIC (A. baumannii IHMA 2156634, Turkey 2020, MDR): >128 µg/mL
- MIC (A. baumannii IHMA 2156709, Turkey 2020, MDR): >128 µg/mL
- MIC (A. baumannii IHMA 2157614, Australia 2020, Non-MDR): ≤0.25 µg/mL
- MIC (A. baumannii IHMA 2177232, Lithuania 2020, MDR): >128 µg/mL
- MIC (A. baumannii IHMA 2177489, Lithuania 2020, MDR): >128 µg/mL
- MIC (A. baumannii IHMA 2178574, Ukraine 2020, Non-MDR): 2 µg/mL
- MIC (A. baumannii IHMA 2180134, Malaysia 2020, Non-MDR): 2 µg/mL
- MIC (A. baumannii IHMA 2180142, Malaysia 2020, MDR): >128 µg/mL
- MIC (A. baumannii IHMA 2181370, Morocco 2020, MDR): >128 µg/mL
- MIC (A. baumannii IHMA 2183729, Argentina 2020, MDR): >128 µg/mL
- MIC (A. baumannii IHMA 2183849, Argentina 2020, Non-MDR): ≤0.25 µg/mL
- MIC (A. baumannii IHMA 2184382, Japan 2020, Non-MDR): ≤0.25 µg/mL
- MIC (A. baumannii IHMA 2193375, Venezuela 2020, MDR): >128 µg/mL
- MIC (A. baumannii IHMA 2193485, Venezuela 2020, Non-MDR): ≤0.25 µg/mL
- MIC (A. baumannii IHMA 2193607, Venezuela 2020, MDR): >128 µg/mL
- MIC (A. baumannii IHMA 2195460, Italy 2020, MDR): >128 µg/mL
- MIC (A. baumannii IHMA 2196914, South Africa 2020, MDR): >128 µg/mL
- MIC (A. baumannii IHMA 2196959, South Africa 2020, MDR): >128 µg/mL
- MIC (A. baumannii IHMA 2203763, Spain 2020, MDR): >128 µg/mL
- MIC (A. baumannii IHMA 2205144, Korea, South 2020, MDR): >128 µg/mL
- MIC (A. baumannii IHMA 2206459, Taiwan 2020, MDR): >128 µg/mL
- MIC (A. baumannii IHMA 2206507, Taiwan 2020, Non-MDR): ≤0.25 µg/mL
- MIC (A. baumannii IHMA 2212575, Hungary 2020, Non-MDR): 4 µg/mL
- MIC (A. baumannii IHMA 2215307, Hong Kong 2020, Non-MDR): 1 µg/mL
- MIC (A. baumannii IHMA 2216586, Taiwan 2020, MDR): >128 µg/mL
- MIC (A. baumannii IHMA 2223200, Colombia 2020, Non-MDR): ≤0.25 µg/mL
- MIC (A. baumannii IHMA 2224017, Panama 2020, MDR): >128 µg/mL
- MIC (A. baumannii IHMA 2224303, Panama 2020, Non-MDR): 16 µg/mL
- MIC (A. baumannii IHMA 2231797, Greece 2020, MDR): >128 µg/mL
- MIC (A. baumannii IHMA 2233099, Guatemala 2020, MDR): >128 µg/mL
- MIC (A. baumannii IHMA 2233430, Kazakhstan 2020, MDR): >128 µg/mL
- MIC (A. baumannii IHMA 2233548, Kazakhstan 2020, Non-MDR): ≤0.25 µg/mL
- MIC (A. baumannii IHMA 2238964, Thailand 2020, MDR): >128 µg/mL
- MIC (A. baumannii IHMA 2239052, Thailand 2020, Non-MDR): ≤0.25 µg/mL
- MIC (A. baumannii IHMA 2261047, Belgium 2020, MDR): >128 µg/mL
- MIC (A. baumannii IHMA 2261633, Canada 2020, Non-MDR): ≤0.25 µg/mL
- MIC (A. baumannii IHMA 2274234, South Africa 2020, MDR): >128 µg/mL
- MIC (A. baumannii IHMA 2274364, South Africa 2020, MDR): >128 µg/mL
- MIC (A. baumannii IHMA 2275237, Chile 2020, Non-MDR): ≤0.25 µg/mL
- MIC (A. baumannii IHMA 2275751, Jordan 2020, MDR): >128 µg/mL
- MIC (A. baumannii IHMA 2316205, United States 2020, MDR): >128 µg/mL
- MAX (maximum MIC; all strains inhibited) (MDR n = 50): >128 µg/mL
- MIC50 (MDR n = 50): >128 µg/mL
- MIC90 (MDR n = 50): >128 µg/mL
- MIN (minimum MIC) (MDR n = 50): >128 µg/mL
- Percentage I (MDR n = 50): 0%
- Percentage R (MDR n = 50): 100%
- Percentage S (MDR n = 50): 0%
- Cumulative % at MIC (MDR n=50, MIC >128 µg/mL): 100%
- No. of isolates at MIC (MDR n=50, MIC >128 µg/mL): 50
- MAX (maximum MIC; all strains inhibited) (all isolates n = 100): >128 µg/mL
- MIC50 (all isolates n = 100): 16 µg/mL
- MIC90 (all isolates n = 100): >128 µg/mL
- MIN (minimum MIC) (all isolates n = 100): ≤0.25 µg/mL
- Percentage I (all n = 100, CLSI breakpoints): 0%
- Percentage R (all n = 100, CLSI breakpoints): 50%
- Percentage S (all n = 100, CLSI breakpoints): 50%
- Cumulative % at MIC (all n=100, MIC 0.5 µg/mL): 36%
- No. of isolates at MIC (all n=100, MIC 0.5 µg/mL): 1
- Cumulative % at MIC (all n=100, MIC 1 µg/mL): 37%
- No. of isolates at MIC (all n=100, MIC 1 µg/mL): 1
- Cumulative % at MIC (all n=100, MIC 2 µg/mL): 39%
- No. of isolates at MIC (all n=100, MIC 2 µg/mL): 2
- Cumulative % at MIC (all n=100, MIC […] µg/mL): 50%
- No. of isolates at MIC (all n=100, MIC […] µg/mL): 3
- Cumulative % at MIC (all n=100, MIC >128 µg/mL): 100%
- No. of isolates at MIC (all n=100, MIC >128 µg/mL): 50
- Cumulative % at MIC (all n=100, MIC ≤[…]): 35%
- No. of isolates at MIC (all n=100, MIC ≤[…]): 35
- MAX (maximum MIC) (non-MDR n = 50): 16 µg/mL
- MIC50 (non-MDR n = 50): ≤0.25 µg/mL
- MIC90 (non-MDR n = 50): 4 µg/mL
- MIN (minimum MIC) (non-MDR n = 50): ≤0.25 µg/mL
- Percentage I (non-MDR n = 50): 0%
- Percentage R (non-MDR n = 50): 0%
- Percentage S (non-MDR n = 50): 100%
- Cumulative % at MIC (non-MDR n=50, MIC 0.5 µg/mL): 72%
- No. of isolates at MIC (non-MDR n=50, MIC 0.5 µg/mL): 1
- Cumulative % at MIC (non-MDR n=50, MIC 1 µg/mL): 74%
- No. of isolates at MIC (non-MDR n=50, MIC 1 µg/mL): 1
- Cumulative % at MIC (non-MDR n=50, MIC 2 µg/mL): 78%
- No. of isolates at MIC (non-MDR n=50, MIC 2 µg/mL): 2
- Cumulative % at MIC (non-MDR n=50, MIC […] µg/mL): 100%
- No. of isolates at MIC (non-MDR n=50, MIC […] µg/mL): 3
- Cumulative % at MIC (non-MDR n=50, MIC ≤[…]): 70%
- No. of isolates at MIC (non-MDR n=50, MIC ≤[…]): 35
